According to EP2361611A2, “Aqueous sustained-release drug delivery system for highly water-soluble electrolytic drugs” (Upm Pharmaceuticals, Inc., priority 2005, dated 2006):

Experiment: Equilibrium binding study in a two-compartment dialysis cell, HPLC
Conditions: sodium alginate 0.877 g/L, 25°C
[1] = total drug concentration 4.97 M x 10^4
[2] = total drug concentration 5.47 M x 10^4
[3] = total drug concentration 5.96 M x 10^4
[4] = total drug concentration 6.96 M x 10^4
[5] = total drug concentration 7.95 M x 10^4
[6] = total drug concentration 8.95 M x 10^4
[7] = total drug concentration 9.94 M x 10^4
[8] = total drug concentration 14.91 M x 10^4
[9] = total drug concentration 19.88 M x 10^4
[10] = total drug concentration 24.86 M x 10^4
[11] = total drug concentration 30.40 M x 10^4
[12] = total drug concentration 41.20 M x 10^4
[13] = total drug concentration 50.70 M x 10^4

Method: The studies were performed with a two compartment plexiglass dialysis cell (Hollenbeck laboratory) and having a cellulose membrane (molecular weight cutoff of 6000 Daltons) Bel-Art Products (Pequannock, NJ) placed between the two cell compartments. […] The dialysis cell was shaken at 80 RPM in a thermostatic water bath at 25°C until equilibrium was reached (30 h). The solution was removed from the drug compartment and the concentrations of free drug and polymer-bound drug measured by high performance liquid chromatography ("HPLC").

Compound: CC(C)NCC(O)COc1cccc2ccccc12 (stereo not drawn) [propranolol]
- Amount bound per gram of polymer [1]: 4.59 M x 10^4
- Bound drug concentration [1]: 4.03 M x 10^4
- Free drug concentration [1]: 0.94 M x 10^4
- r/(Df) [1]: 4.88 L/g
- Amount bound per gram of polymer [2]: 4.84 M x 10^4
- Bound drug concentration [2]: 4.25 M x 10^4
- Free drug concentration [2]: 1.22 M x 10^4
- r/(Df) [2]: 3.97 L/g
- Amount bound per gram of polymer [3]: 5.16 M x 10^4
- Bound drug concentration [3]: 4.53 M x 10^4
- Free drug concentration [3]: 1.43 M x 10^4
- r/(Df) [3]: 3.60 L/g
- Amount bound per gram of polymer [4]: 5.86 M x 10^4
- Bound drug concentration [4]: 5.14 M x 10^4
- Free drug concentration [4]: 1.82 M x 10^4
- r/(Df) [4]: 3.21 L/g
- Amount bound per gram of polymer [5]: 6.23 M x 10^4
- Bound drug concentration [5]: 5.46 M x 10^4
- Free drug concentration [5]: 2.49 M x 10^4
- r/(Df) [5]: 2.49 L/g
- Amount bound per gram of polymer [6]: 6.12 M x 10^4
- Bound drug concentration [6]: 5.37 M x 10^4
- Free drug concentration [6]: 3.57 M x 10^4
- r/(Df) [6]: 1.71 L/g
- Amount bound per gram of polymer [7]: 6.66 M x 10^4
- Bound drug concentration [7]: 5.83 M x 10^4
- Free drug concentration [7]: 4.10 M x 10^4
- r/(Df) [7]: 1.62 L/g
- Amount bound per gram of polymer [8]: 8.61 M x 10^4
- Free drug concentration [8]: 7.36 M x 10^4
- r/(Df) [8]: 1.17 L/g
- Amount bound per gram of polymer [9]: 9.81 M x 10^4
- Bound drug concentration [9]: 8.60 M x 10^4
- Free drug concentration [9]: 11.28 M x 10^4
- r/(Df) [9]: 0.87 L/g
- Amount bound per gram of polymer [10]: 10.73 M x 10^4
- Bound drug concentration [10]: 9.41 M x 10^4
- Free drug concentration [10]: 15.45 M x 10^4
- r/(Df) [10]: 0.60 L/g
- Amount bound per gram of polymer [11]: 11.49 M x 10^4
- Bound drug concentration [11]: 10.08 M x 10^4
- Free drug concentration [11]: 20.32 M x 10^4
- r/(Df) [11]: 0.57 L/g
- Amount bound per gram of polymer [12]: 12.37 M x 10^4
- Bound drug concentration [12]: 10.84 M x 10^4
- Free drug concentration [12]: 30.35 M x 10^4
- r/(Df) [12]: 0.41 L/g
- Amount bound per gram of polymer [13]: 12.93 M x 10^4
- Bound drug concentration [13]: 11.34 M x 10^4
- Free drug concentration [13]: 39.36 M x 10^4
- r/(Df) [13]: 0.33 L/g
